In patent US9296698B2, “Amino heteroaryl compounds as beta-secretase modulators and methods of use” (Amgen Inc., priority 2009, dated 2016):
Like-named read-outs stand apart in the source and are kept apart here.

Assays:
[1] = system: Aβ40 in conditioned medium of cells stably expressing Amyloid Precursor Protein (APP); assay: In vitro BACE cell-based assay (HEK cell assay), Aβ40 sandwich ELISA; details: IC50 range symbols, Table 1, Aβ40, 24 h incubation, read-out: HEK cell assay
Procedure: In Vitro BACE Cell-Based Assay:
The cell-based assay measures inhibition or reduction of Aβ40 in conditioned medium of test compound treated cells expressing amyloid precursor protein.
Cells stably expressing Amyloid Precursor Protein (APP) were plated at a density of 40K cells/well in 96 well plates (Costar). The cells were cultivated for 24 hours at 37° C. and 5% CO2 in DMEM supplemented with 10% FBS. The test compounds were then added to cells in 10-point dose response concentrations with the starting concentration being either 100 μM or 10 μM. The compounds were diluted from stock solutions in DMSO and the final DMSO concentration of the test compounds on cells was 0.1%. After 24 h of incubation with the test compounds the supernatant conditioned media was collected and the Aβ 40 levels were determined using a sandwich ELISA. The IC50 of the compound was calculated from the percent of control or percent inhibition of Aβ 40 as a function of the concentration of the test compound.
The sandwich ELISA to detect Aβ 40 was performed in 96 well microtiter plates, which were pre-treated with goat anti-rabbit IgG (Pierce). The capture and detecting antibody pair that were used to detect Aβ 40 from cell supernatants were affinity purified pAb40 (Biosource) and biotinylated 6E10 (Signet Labs Inc.), respectively. The optimal concentration for the pAb40 antibody was 3 μg/ml in Superblock/TBS (Pierce) that was supplemented with 0.05% Tween 20 (Sigma).
Cellular supernatants were incubated with the capture antibody for 3 h at 4° C., followed by 3 wash steps in TBS-tween (0.05%). The detecting antibody incubation was for 2 h at 4° C., again followed by the wash steps as described previously. The final readout of the ELISA is Time-Resolved Fluorescence (counts per minute) using Delfia reagents Streptavidin-Europium and Enhancement solutions (Perkin Elmer) and the Victor 2 multilabel counter (Perkin Elmer).

[2] = target: BACE 1 (Beta Secretase enzyme) (Homo sapiens, UniProt P56817); assay: In vitro enzymatic BACE FRET assay; type: biochemical; details: IC50 range symbols, Table 1; read-out: BACE 1 FRET assay
Chain of BACE 1 (Beta Secretase enzyme) (P56817 46-501, species assumed): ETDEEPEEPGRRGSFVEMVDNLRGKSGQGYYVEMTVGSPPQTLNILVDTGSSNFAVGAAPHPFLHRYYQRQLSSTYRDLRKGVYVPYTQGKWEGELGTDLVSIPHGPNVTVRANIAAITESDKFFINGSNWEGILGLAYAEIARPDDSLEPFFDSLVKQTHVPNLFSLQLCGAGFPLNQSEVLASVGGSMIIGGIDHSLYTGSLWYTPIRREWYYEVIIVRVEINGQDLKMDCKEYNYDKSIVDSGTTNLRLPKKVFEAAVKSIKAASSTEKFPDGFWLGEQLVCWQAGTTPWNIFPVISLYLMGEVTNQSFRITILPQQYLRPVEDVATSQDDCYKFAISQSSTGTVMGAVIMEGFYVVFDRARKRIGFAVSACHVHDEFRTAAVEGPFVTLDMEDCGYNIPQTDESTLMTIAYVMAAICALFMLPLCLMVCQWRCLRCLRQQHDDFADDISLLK
Procedure: In Vitro Enzymatic BACE FRET (Fluorescence Resonance Energy Transfer) Assay (Enzyme Assay Data in Table 1)
The assay buffer used in this screen is 0.05 M acetate, pH 4.2, 10% DMSO final, 100 uM genapol (which is a nonionic detergent, below its Critical Micelle Concentration). […] The assay is effectively started by the addition of FRET substrate (50 nM) and the combination is incubated for one hour. The FRET assay is terminated with by addition of Tris buffer, which raises the pH to neutrality, and the fluorescence is determined. The FRET substrate is a peptide with commercially available fluorophore and quencher, on opposite sides of the BACE cleavage site.

Row | Molecule | IC50 [1] | IC50 [2] | IC50 ([1]; Homo sapiens, HEK293, 24 h)
1 | 3-(2-amino-6-(2-((2-methoxyphenyl)carbonyl)phenyl)-3-quinolinyl)-N-(2,2-dimethyltetrahydro-2H-pyran-4-yl)-2-methylpropanamide [Example 146] | < 500 nM | < 500 nM | –
2 | 3-(2-amino-6-(2-methyl-6-(1-pyrrolidinylcarbonyl)phenyl)-3-quinolinyl)-N-(2,2-dimethyltetrahydro-2H-pyran-4-yl)-2-methylpropanamide [Example 145] | < 500 nM | < 500 nM | –
3 | 3-(2-amino-6-o-tolylquinolin-3-yl)-N-(tetrahydro-2H-pyran-4-yl)propanamide [Example 16] | 1000 to 5000 nM | 1000 to 5000 nM | –
4 | 3-(3-amino-7-o-tolylnaphthalen-2-yl)-2-methyl-N-(pyridin-3-ylmethyl)propanamide [Example 69] | 500 to 1000 nM | < 500 nM | –
5 | 3-(3-amino-7-o-tolylnaphthalen-2-yl)-N-(1-(2-methoxyphenyl)ethyl)-2-methylpropanamide [Example 70] | 1000 to 5000 nM | < 500 nM | –
6 | 3-(3-amino-7-o-tolylnaphthalen-2-yl)-N-(1-(pyridin-2-yl)ethyl)propanamide [Example 56] | 1000 to 5000 nM | < 500 nM | –
7 | 3-(3-amino-7-o-tolylnaphthalen-2-yl)-N-(1-phenylethyl)propanamide [Example 30] | 1000 to 5000 nM | < 500 nM | –
8 | 3-(3-amino-7-o-tolylnaphthalen-2-yl)-N-(2,3-dihydro-1H-inden-1-yl)propanamide [Example 57] | 1000 to 5000 nM | < 500 nM | –
9 | 3-(3-amino-7-o-tolylnaphthalen-2-yl)-N-(2-fluorophenyl)propanamide [Example 28] | 1000 to 5000 nM | 500 to 1000 nM | –
10 | 3-(3-amino-7-o-tolylnaphthalen-2-yl)-N-(2-methoxy-2-methylpropyl)propanamide [Example 29] | 1000 to 5000 nM | 500 to 1000 nM | –
11 | 3-(3-amino-7-o-tolylnaphthalen-2-yl)-N-(2-methoxybutyl)propanamide [Example 26] | 1000 to 5000 nM | < 500 nM | –
12 | 3-(3-amino-7-o-tolylnaphthalen-2-yl)-N-(6,7-dihydro-5H-cyclopenta[b]pyridin-7-yl)-2-methylpropanamide [Example 73] | 1000 to 5000 nM | < 500 nM | –
13 | 3-(3-amino-7-o-tolylnaphthalen-2-yl)-N-((R)-1-(2-fluorophenyl)ethyl)propanamide [Example 55] | 1000 to 5000 nM | < 500 nM | –
14 | 3-(3-amino-7-o-tolylnaphthalen-2-yl)-N-((R)-1-cyclohexylethyl)propanamide [Example 31] | > 5000 nM | < 500 nM | –
15 | 3-(3-amino-7-o-tolylnaphthalen-2-yl)-N-((S)-1-cyclohexylethyl)propanamide [Example 35] | > 5000 nM | < 500 nM | –
16 | 3-(3-amino-7-o-tolylnaphthalen-2-yl)-N-(pyridin-2-ylmethyl)propanamide [Example 36] | 1000 to 5000 nM | < 500 nM | –
17 | 3-(3-amino-7-o-tolylnaphthalen-2-yl)-N-(pyridin-3-ylmethyl)propanamide [Example 37] | 1000 to 5000 nM | < 500 nM | –

Row | Molecule | IC50 [1] | IC50 [2] | IC50 ([1]; Homo sapiens, HEK293, 24 h)
18 | 3-(6-(3-chloropyridin-2-yl)quinolin-3-yl)-N-((4,4-difluorocyclohexyl)methyl)-2-methylpropanamide [Example 99] | 1000 to 5000 nM | < 500 nM | –
19 | Cc1ccccc1-c1ccc2nc(N)c(CCC(=O)N(C)C3CCCCC3)cc2c1 [Example 1, 3-(2-amino-6-o-tolylquinolin-3-yl)-N-cyclohexyl-N-methylpropanamide] | – | – | < 500 nM
20 | Cc1cccnc1-c1ccc2nc(N)c(CC(C)C(=O)NCCC(C)(C)C)cc2c1 (stereo not shown) [Example 5, 3-(2-amino-6-(3-methylpyridin-2-yl)quinolin-3-yl)-N-(3,3-dimethylbutyl)-2-methylpropanamide] | – | – | 500 to 1000 nM
21 | Cc1ccccc1-c1ccc2nc(N)c(CCC(=O)NC3CCCCC3)cc2c1 [Example 13, 3-(2-amino-6-o-tolylquinolin-3-yl)-N-cyclohexylpropanamide] | – | – | 500 to 1000 nM
22 | Cc1ccccc1-c1ccc2nc(N)c(CCC(=O)NCC3CCCCC3)cc2c1 [Example 14, 3-(2-amino-6-o-tolylquinolin-3-yl)-N-(cyclohexylmethyl)propanamide] | – | – | 500 to 1000 nM
23 | Cc1ccccc1-c1ccc2nc(N)c(CC(C)C(=O)NCC3CCCCC3)cc2c1 (stereo not shown) [Example 22, 3-(2-amino-6-o-tolylquinolin-3-yl)-N-(cyclohexylmethyl)-2-methylpropanamide] | – | – | < 500 nM
24 | Cc1ccccc1-c1ccc2nc(N)c(CC(C)C(=O)NCc3ccccc3)cc2c1 (stereo not shown) [Example 52, 3-(2-amino-6-o-tolylquinolin-3-yl)-N-benzyl-2-methylpropanamide] | – | – | 1000 to 5000 nM
25 | CCC(Cc1cc2cc(-c3ccccc3C)ccc2nc1N)C(=O)NCC1CCCCC1 (stereo not shown) [Example 60, 2-((2-amino-6-o-tolylquinolin-3-yl)methyl)-N-(cyclohexylmethyl)butanamide] | – | – | > 5000 nM
26 | Cc1ccccc1-c1ccc2nc(N)c(CC(C(=O)NCC3CCCCC3)C(C)C)cc2c1 (stereo not shown) [Example 66, 2-((2-amino-6-o-tolylquinolin-3-yl)methyl)-N-(cyclohexylmethyl)-3-methylbutanamide] | – | – | 1000 to 5000 nM
27 | Cc1ccccc1-c1ccc2nc(N)c(C[C@@H](C)C(=O)NCc3cnccn3)cc2c1 [Example 80, (R)-3-(2-amino-6-o-tolylquinolin-3-yl)-2-methyl-N-(pyrazin-2-ylmethyl)propanamide] | – | – | < 500 nM
28 | Cc1ccccc1-c1ccc2nc(N)c(C[C@@H](C)C(=O)NCC3CCOCC3)cc2c1 [Example 87, (R)-3-(2-amino-6-o-tolylquinolin-3-yl)-2-methyl-N-((tetrahydro-2H-pyran-4-yl)methyl)propanamide] | – | – | < 500 nM
29 | Cc1ccccc1-c1ccc2nc(N)c(CC(C)C(=O)NCCC(C)(C)C)cc2c1 (stereo not shown) [Example 90, 3-(2-amino-6-o-tolylquinolin-3-yl)-N-(3,3-dimethylbutyl)-2-methylpropanamide] | – | – | < 500 nM
30 | Cc1ccccc1-c1ccc2nc(N)c(CC(C)C(=O)NCc3cncs3)cc2c1 (stereo not shown) [Example 93, 3-(2-amino-6-o-tolylquinolin-3-yl)-2-methyl-N-(thiazol-5-ylmethyl)propanamide] | – | – | < 500 nM
31 | Cc1cccnc1-c1ccc2nc(N)c(C[C@@H](C)C(=O)NCCC(C)(C)C)cc2c1 [Example 126, (R)-3-(2-amino-6-(3-methylpyridin-2-yl)quinolin-3-yl)-N-(3,3-dimethylbutyl)-2-methylpropanamide] | – | – | < 500 nM
32 | C[C@H](Cc1cc2cc(-c3ncccc3Cl)ccc2nc1N)C(=O)NCCC(C)(C)C [Example 128, (R)-3-(2-amino-6-(3-chloropyridin-2-yl)quinolin-3-yl)-N-(3,3-dimethylbutyl)-2-methylpropanamide] | – | – | < 500 nM
33 | CC(=O)c1ccccc1-c1ccc2nc(N)c(CC(C)C(=O)NCCC(C)(C)C)cc2c1 (stereo not shown) [Example 156, 3-(6-(2-acetylphenyl)-2-aminoquinolin-3-yl)-N-(3,3-dimethylbutyl)-2-methylpropanamide] | – | – | < 500 nM
34 | Cc1ccccc1-c1ccc2nc(N)c(C[C@@H](C)C(=O)NC3CCOC(C)(C)C3)cc2c1 (stereo partly drawn) [Example 164, (2R)-3-(2-amino-6-o-tolylquinolin-3-yl)-N-(2,2-dimethyltetrahydro-2H-pyran-4-yl)-2-methylpropanamide] | – | – | < 500 nM
